Measured values: publication PMC6858350, “A common mechanism allows selective targeting of GluN2B subunit-containing N-methyl-D-aspartate receptors” (Communications Biology, 2019)
Marks after values point to notes of the source that are not given here.

Tests used:
[1] = molecular target: GluN1-1a/GluN2B NMDAR (wildtype) (Rattus norvegicus, UniProt P35439+Q00960); type: cell-based; settings: for IC50 / p (slope of the dose-response curve) / A2 ± SE (maximum inhibition from dose-response curve): TEVC, wildtype; for IC50: holding potential −70 mV, 10 µM glycine and 10 µM (S)-glutamate, read-out: IC50 ± SE; for p (slope of the dose-response curve) / A2 ± SE (maximum inhibition from dose-response curve): −70 mV; for A2 (maximum inhibition), set as identical with rac-1: due to non-saturating inhibition A2 was fixed, not fitted; for A2 ± SE (maximum inhibition from dose-response curve): flexible A2; for inhibition at 10 µM: read-out: ion current inhibition % ± SEM, GluN2B
[2] = molecular target: T1, GluN1-1a WT/GluN2B E236A (Rattus norvegicus, UniProt P35439+Q00960, E236A); assay: cell-based
[3] = molecular target: T2, GluN1-1a WT/GluN2B Q110A (Rattus norvegicus, UniProt P35439+Q00960, Q110A); settings: GluN2B Q110A; for A2 ± SE: flexible A2
T2 sequence (Q00960 27-1482 Q110A, other chains not shown): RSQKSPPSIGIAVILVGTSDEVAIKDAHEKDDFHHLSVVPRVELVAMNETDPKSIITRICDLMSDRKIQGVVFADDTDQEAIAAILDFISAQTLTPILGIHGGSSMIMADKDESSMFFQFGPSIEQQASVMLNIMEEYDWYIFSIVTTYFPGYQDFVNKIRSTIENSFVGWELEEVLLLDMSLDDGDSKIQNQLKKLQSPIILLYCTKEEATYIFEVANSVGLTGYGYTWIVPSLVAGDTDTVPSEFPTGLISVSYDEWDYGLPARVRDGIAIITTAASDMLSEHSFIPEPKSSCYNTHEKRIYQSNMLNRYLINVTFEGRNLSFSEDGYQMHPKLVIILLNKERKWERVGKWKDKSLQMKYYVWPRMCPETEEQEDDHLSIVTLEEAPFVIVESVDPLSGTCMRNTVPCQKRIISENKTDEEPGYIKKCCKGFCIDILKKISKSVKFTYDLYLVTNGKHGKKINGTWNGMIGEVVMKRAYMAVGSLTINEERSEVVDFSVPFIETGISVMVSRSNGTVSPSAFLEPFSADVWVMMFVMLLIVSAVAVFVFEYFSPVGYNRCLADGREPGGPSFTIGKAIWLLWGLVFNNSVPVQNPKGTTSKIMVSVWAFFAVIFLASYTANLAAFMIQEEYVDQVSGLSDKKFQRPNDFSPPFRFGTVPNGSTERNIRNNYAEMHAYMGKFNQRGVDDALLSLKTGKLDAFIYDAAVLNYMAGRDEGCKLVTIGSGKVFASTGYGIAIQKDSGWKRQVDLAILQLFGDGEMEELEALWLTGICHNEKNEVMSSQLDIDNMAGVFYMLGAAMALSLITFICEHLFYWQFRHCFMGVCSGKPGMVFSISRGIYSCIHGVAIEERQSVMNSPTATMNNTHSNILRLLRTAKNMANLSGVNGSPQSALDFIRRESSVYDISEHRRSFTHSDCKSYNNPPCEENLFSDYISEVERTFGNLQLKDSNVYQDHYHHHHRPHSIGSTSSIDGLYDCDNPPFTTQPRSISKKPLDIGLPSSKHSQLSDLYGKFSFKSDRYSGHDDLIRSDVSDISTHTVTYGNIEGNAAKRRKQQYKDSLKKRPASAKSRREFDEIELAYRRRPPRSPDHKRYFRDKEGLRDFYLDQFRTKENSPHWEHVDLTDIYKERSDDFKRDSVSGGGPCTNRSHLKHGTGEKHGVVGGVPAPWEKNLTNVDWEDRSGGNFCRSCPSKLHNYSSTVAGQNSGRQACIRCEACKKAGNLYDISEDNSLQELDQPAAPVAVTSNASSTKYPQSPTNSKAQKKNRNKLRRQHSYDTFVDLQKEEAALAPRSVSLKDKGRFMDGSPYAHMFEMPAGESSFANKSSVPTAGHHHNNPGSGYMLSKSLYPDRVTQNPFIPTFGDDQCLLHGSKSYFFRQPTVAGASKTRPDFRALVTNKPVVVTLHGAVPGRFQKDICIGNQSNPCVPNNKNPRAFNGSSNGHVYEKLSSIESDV

[4] = molecular target: T3, GluN1-1a S132A/GluN2B WT (Rattus norvegicus, UniProt P35439+Q00960, S132A); settings: GluN1-1a S132A; for A2 ± SE: flexible A2
[5] = molecular target: T4, GluN1-1a Y109S/GluN2B WT (Rattus norvegicus, UniProt P35439+Q00960, Y109S); assay: cell-based
[6] = molecular target: T5, GluN1-1a F113S/GluN2B WT (Rattus norvegicus, UniProt P35439+Q00960, F113S); settings: GluN1-1a F113S; for A2 ± SE: flexible A2
[7] = molecular target: T6, GluN1-1a WT/GluN2B F114A (Rattus norvegicus, UniProt P35439+Q00960, F114A); settings: GluN2B F114A; for A2, fixed-to-wildtype (*): maximum inhibition fixed to wildtype value
T6 sequence (Q00960 27-1482 F114A, other chains not shown): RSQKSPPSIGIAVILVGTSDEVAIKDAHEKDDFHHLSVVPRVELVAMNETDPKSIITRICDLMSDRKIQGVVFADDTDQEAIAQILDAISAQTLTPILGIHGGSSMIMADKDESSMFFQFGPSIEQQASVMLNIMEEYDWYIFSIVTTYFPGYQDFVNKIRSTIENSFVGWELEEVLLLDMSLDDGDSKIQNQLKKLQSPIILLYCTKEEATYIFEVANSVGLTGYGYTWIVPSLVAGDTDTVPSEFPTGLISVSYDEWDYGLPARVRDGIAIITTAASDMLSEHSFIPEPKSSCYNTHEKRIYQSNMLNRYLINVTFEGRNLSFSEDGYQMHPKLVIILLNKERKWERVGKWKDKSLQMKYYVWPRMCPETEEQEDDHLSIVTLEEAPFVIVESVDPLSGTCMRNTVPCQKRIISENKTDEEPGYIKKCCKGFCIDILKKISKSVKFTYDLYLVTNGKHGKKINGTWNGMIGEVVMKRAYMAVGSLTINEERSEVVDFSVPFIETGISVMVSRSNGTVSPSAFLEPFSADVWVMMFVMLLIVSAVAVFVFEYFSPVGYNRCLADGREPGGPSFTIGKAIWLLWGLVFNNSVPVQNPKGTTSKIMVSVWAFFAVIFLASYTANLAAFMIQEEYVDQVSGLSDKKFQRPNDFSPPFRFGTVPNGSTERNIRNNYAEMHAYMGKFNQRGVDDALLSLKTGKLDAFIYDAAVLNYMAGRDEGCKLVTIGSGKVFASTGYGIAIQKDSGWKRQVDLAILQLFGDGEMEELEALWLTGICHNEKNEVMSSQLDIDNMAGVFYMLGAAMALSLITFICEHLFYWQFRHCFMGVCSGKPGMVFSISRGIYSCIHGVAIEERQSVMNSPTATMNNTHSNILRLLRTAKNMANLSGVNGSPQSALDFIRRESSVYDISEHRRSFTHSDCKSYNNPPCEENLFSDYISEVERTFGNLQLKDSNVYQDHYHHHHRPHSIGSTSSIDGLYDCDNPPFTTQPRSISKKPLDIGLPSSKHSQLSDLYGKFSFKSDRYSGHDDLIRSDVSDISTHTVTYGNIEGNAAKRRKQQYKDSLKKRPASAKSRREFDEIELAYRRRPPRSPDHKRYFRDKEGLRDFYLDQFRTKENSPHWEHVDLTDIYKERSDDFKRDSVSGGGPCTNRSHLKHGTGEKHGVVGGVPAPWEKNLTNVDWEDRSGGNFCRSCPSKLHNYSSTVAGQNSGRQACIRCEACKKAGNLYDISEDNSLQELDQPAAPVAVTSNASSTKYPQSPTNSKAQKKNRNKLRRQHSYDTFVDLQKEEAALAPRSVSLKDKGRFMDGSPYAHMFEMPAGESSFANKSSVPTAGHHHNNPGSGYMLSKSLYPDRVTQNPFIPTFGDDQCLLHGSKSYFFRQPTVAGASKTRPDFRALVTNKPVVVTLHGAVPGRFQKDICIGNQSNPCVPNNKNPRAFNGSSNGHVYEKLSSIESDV

[8] = molecular target: T4, GluN1-1a Y109S/GluN2B WT; settings: GluN1-1a Y109S; for A2 ± SE: flexible A2
[9] = test system: NMDA receptor-dependent EPSCs in CA1 pyramidal neurons; assay: whole cell patch-clamp of evoked NMDAR-dependent EPSCs in hippocampal slices; type: cell-based, C57BL/6J mice; settings: n = 5; for EPSC amplitude after washout, % of the initial baseline (SEM): washout of compound
[10] = molecular target: T7, GluN1-1a L135N/GluN2B WT (Rattus norvegicus, UniProt P35439+Q00960, L135N); settings: GluN1-1a L135N; for A2 ± SE: flexible A2
T7 sequence (Q00960 27-1482, other chains not shown): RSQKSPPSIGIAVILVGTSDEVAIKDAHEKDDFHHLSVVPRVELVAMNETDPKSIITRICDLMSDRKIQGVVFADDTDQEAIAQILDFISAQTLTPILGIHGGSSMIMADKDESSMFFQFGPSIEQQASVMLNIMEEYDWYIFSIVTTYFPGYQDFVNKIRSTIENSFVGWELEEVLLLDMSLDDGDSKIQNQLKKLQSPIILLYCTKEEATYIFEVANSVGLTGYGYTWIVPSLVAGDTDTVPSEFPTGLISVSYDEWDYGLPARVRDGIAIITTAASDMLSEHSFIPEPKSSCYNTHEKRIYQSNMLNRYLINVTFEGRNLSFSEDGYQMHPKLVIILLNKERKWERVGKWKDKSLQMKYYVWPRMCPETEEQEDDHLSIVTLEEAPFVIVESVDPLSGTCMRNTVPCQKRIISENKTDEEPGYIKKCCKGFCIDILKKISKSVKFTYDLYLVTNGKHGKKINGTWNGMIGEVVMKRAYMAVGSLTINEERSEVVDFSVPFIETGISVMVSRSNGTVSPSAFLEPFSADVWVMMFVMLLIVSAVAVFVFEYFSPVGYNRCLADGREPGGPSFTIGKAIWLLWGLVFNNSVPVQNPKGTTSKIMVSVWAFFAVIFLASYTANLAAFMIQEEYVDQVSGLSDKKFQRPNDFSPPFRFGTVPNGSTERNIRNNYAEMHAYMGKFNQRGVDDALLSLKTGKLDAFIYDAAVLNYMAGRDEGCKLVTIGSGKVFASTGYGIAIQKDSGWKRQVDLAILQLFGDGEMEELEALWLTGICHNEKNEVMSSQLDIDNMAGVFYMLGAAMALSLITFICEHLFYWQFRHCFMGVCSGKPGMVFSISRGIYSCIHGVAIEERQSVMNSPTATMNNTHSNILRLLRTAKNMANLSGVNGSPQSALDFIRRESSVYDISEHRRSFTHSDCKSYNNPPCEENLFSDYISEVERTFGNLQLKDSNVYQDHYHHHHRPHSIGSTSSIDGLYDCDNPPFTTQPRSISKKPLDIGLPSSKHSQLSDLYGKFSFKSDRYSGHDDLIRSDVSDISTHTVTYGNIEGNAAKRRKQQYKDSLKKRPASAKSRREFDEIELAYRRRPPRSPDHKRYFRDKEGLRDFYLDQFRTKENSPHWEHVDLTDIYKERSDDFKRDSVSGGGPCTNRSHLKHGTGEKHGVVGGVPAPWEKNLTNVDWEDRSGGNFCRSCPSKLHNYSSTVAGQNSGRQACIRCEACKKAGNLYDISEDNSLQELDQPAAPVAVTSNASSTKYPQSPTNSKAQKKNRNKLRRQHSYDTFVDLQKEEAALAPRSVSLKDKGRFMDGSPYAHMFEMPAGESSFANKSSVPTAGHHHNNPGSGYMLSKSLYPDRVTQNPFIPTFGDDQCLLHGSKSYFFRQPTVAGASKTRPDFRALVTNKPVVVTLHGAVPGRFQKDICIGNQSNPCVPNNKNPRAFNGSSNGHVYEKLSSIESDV

[11] = molecular target: T8, GluN1-1a WT/GluN2B F176Y (Rattus norvegicus, UniProt P35439+Q00960, F176Y); assay: cell-based
[12] = molecular target: T1, GluN1-1a WT/GluN2B E236A; settings: GluN2B E236A; for A2 ± SE: flexible A2
[13] = molecular target: T9, GluN1-1a WT/GluN2B F176A (Rattus norvegicus, UniProt P35439+Q00960, F176A); settings: GluN2B F176A; for A2, fixed-to-wildtype (*): maximum inhibition fixed to wildtype value
[14] = molecular target: T10, GluN1-1a WT/GluN2B I111A (Rattus norvegicus, UniProt P35439+Q00960, I111A); assay: cell-based
[15] = molecular target: T6, GluN1-1a WT/GluN2B F114A; assay: cell-based
[16] = molecular target: GluN1-1a/GluN2C NMDAR (Rattus norvegicus, UniProt P35439+Q00961); assay: cell-based; settings: read-out: ion current inhibition % ± SEM, GluN2C
[17] = molecular target: T3, GluN1-1a S132A/GluN2B WT; assay: cell-based
[18] = molecular target: GluN1-1a/GluN2A NMDAR (Rattus norvegicus, UniProt P35439+Q00959); assay: cell-based; settings: read-out: ion current inhibition % ± SEM, GluN2A
[19] = molecular target: T5, GluN1-1a F113S/GluN2B WT; assay: cell-based
[20] = molecular target: T2, GluN1-1a WT/GluN2B Q110A; assay: cell-based
[21] = molecular target: T10, GluN1-1a WT/GluN2B I111A; settings: GluN2B I111A; for A2 ± SE: flexible A2
[22] = molecular target: T9, GluN1-1a WT/GluN2B F176A; assay: cell-based
[23] = molecular target: T8, GluN1-1a WT/GluN2B F176Y; settings: GluN2B F176Y; for A2, fixed-to-wildtype (*): maximum inhibition fixed to wildtype value
[24] = molecular target: GluN1-1a/GluN2D NMDAR (Rattus norvegicus, UniProt P35439+Q62645); assay: cell-based; settings: read-out: ion current inhibition % ± SEM, GluN2D
[25] = molecular target: T7, GluN1-1a L135N/GluN2B WT; assay: cell-based

IC50 [1] [nM]	A2 (maximum inhibition), set as identical with rac-1 [1]	SMILES	p (slope of the dose-response curve) [1]	p (slope) [3]	A2 ± SE [3] [%]	A2 ± SE [4] [%]	p (slope) [6]	A2 ± SE [6] [%]	p (slope) [7]	A2, fixed-to-wildtype (*) [7] [%]	p (slope) [8]	A2 ± SE [8] [%]	EPSC amplitude after washout, % of the initial baseline (SEM) [9] [%]	p (slope) [10]	A2 ± SE [10] [%]	p (slope) [12]	A2 ± SE [12] [%]	p (slope) [13]	A2, fixed-to-wildtype (*) [13] [%]	inhibition at 10 µM [16] [%]	also measured
2630 ± 296	93^d %	Oc1ccc2c(c1)CCN([C@H]1CC[C@H](c3ccccc3)CC1)CC2O (some centres unmarked) [compound 6]	0.70																		
7210 ± 1770	93^d %	Oc1ccc2c(c1)CCN([C@H]1CC[C@@H](c3ccccc3)CC1)CC2O (some centres unmarked) [compound 7]	0.62																		
		CC(C(O)c1ccc(O)cc1)N1CCC(Cc2ccccc2)CC1 (centres unmarked) [ifenprodil, reference compound]	0.97	0.64	98 ± 5	89 ± 3	1.09	72 ± 3	0.63	94	0.88	74 ± 2	31.9 ± 5	0.99	76 ± 3	1.18	88 ± 5	0.87	94	9 ± 1	p (slope) [4]: 0.79; EPSC amplitude, % of the initial baseline (SEM) ([9]; 1 µM compound): 74.4 ± 8.9%; EPSC amplitude, % of the initial baseline (SEM) ([9]; 6 µM compound): 22.7 ± 4.7%; inhibition at 10 µM [18]: 5 ± 1%; p (slope) [21]: 0.90; A2 ± SE [21]: 68 ± 7%; p (slope) [23]: 0.57; A2, fixed-to-wildtype (*) [23]: 94%; A2 ± SE (maximum inhibition from dose-response curve) [1]: 94 ± 2%; inhibition at 10 µM [1]: 91 ± 1%; inhibition at 10 µM [24]: 24 ± 4%

SMILES	IC50 [1] [nM]	A2 (maximum inhibition), set as identical with rac-1 [1]	p (slope of the dose-response curve) [1]	p (slope) [3]	A2 ± SE [3] [%]	A2 ± SE [4] [%]	p (slope) [6]	A2 ± SE [6] [%]	p (slope) [7]	A2, fixed-to-wildtype (*) [7] [%]	p (slope) [8]	A2 ± SE [8] [%]	EPSC amplitude after washout, % of the initial baseline (SEM) [9] [%]	p (slope) [10]	A2 ± SE [10] [%]	p (slope) [12]	A2 ± SE [12] [%]	p (slope) [13]	A2, fixed-to-wildtype (*) [13] [%]	inhibition at 10 µM [16] [%]	also measured
Oc1ccc2c(c1)CCN(CCCCc1ccccc1)C[C@@H]2O [compound (R)-1]	53 ± 3		1.11	2.18	91 ± 1	92 ± 2	0.50	77 ± 5	1.35	93	1.42	92 ± 2	30.9 ± 3.6	0.66	72 ± 3	1.32	85 ± 1	0.40	93	8 ± 1	IC50 [2]: 194 ± 30 nM; IC50 [5]: 20 ± 2 nM; EPSC amplitude, % of the initial baseline (SEM) ([9]; 2 µM compound): 60.2 ± 2.8%; EPSC amplitude, % of the initial baseline (SEM) ([9]; 7 µM compound): 13.8 ± 1.4%; IC50 [11]: 107 ± 20 nM; IC50 [14]: 137 ± 31 nM; IC50 [15]: 4080 ± 423 nM; IC50 [17]: 106 ± 14 nM; inhibition at 10 µM [18]: 4 ± 1%; IC50 [19]: 117 ± 48 nM; IC50 [20]: 393 ± 24 nM; p (slope) [21]: 0.92; A2 ± SE [21]: 66 ± 3%; IC50 [22]: 105000 ± 41000 nM; p (slope) [23]: 0.82; A2, fixed-to-wildtype (*) [23]: 93%; A2 ± SE (maximum inhibition from dose-response curve) [1]: 93 ± 1%; inhibition at 10 µM [1]: 95 ± 1%; inhibition at 10 µM [24]: 18 ± 3%; IC50 [25]: 293 ± 74 nM
